Results as given in US8354405B2, “6-cycloamino-3-(pyrid-4-yl)imidazo[1,2-b]pyridazine derivatives, preparation thereof and therapeutic use thereof” (Sanofi, priority 2007, dated 2013).

Key:
[1] = molecular target: casein kinase 1 epsilon (CK1 epsilon) (Homo sapiens, UniProt P49674); test: Filter-plate assay of ATP-33P for CK1 epsilon inhibitors (casein phosphorylation); assay type: biochemical; details: inhibition of phosphorylation of casein, ATP-33P filter-plate, ATP 10 μM
Procedure: The capacity of the compounds of the invention to inhibit the phosphorylation of casein by casein kinases 1 epsilon and delta may be evaluated according to the procedure described in document US 2005/0 131 012.
Filter-Plate Assay of ATP-^33P for the Screening of CK1 Epsilon Inhibitors:
The effect of the compounds on inhibition of the phosphorylation of casein by the enzyme casein kinase 1 epsilon (CK1 epsilon) is measured, using a casein assay via filtration of ATP-^33P in vitro.
Casein kinase 1 epsilon (0.58 mg/ml) is obtained via fermentation and purification processes performed according to methods that are well known to those skilled in the art, or may also be obtained from Invitrogen Corporation™ (human CK1 epsilon).
The compounds are tested at five different concentrations so as to generate IC50 values, i.e. the concentration at which a compound is capable of inhibiting the enzymatic activity by 50%, or alternatively the percentage of inhibition at a concentration of 10 micromolar.
“U”-bottomed Falcon plates are prepared by placing 5 μL of solutions of the compounds according to the invention at concentrations of 10, 1, 0.1, 0.01 or 0.001 μM in different wells. The solutions of the compounds according to the invention at these various concentrations are prepared by diluting in a test buffer (Tris 50 mM pH 7.5, MgCl2 […], DTT 2 mM and EGTA 1 mM) a stock solution in DMSO at a concentration of 10 mM. Next, 5 μL of dephosphorylated casein are added to a final concentration of 0.2 μg/μL, 20 μL of CK1 epsilon to a final concentration of 3 ng/μL, and 20 μL of ATP-^33P to a final concentration of 0.02 μCi/μL mixed with cold ATP (10 μM final—approximately 2×10^6 CPM per well). The final total test volume per well is equal to 50 μL.
The “U”-bottomed Falcon® test plate mentioned above is vortexed, and then incubated at room temperature for 2 hours. After 2 hours the reaction is stopped by adding an ice-cold solution of 65 μL of cold ATP (2 mM) prepared in test buffer.
100 μL of the reaction mixture are then transferred from the “U”-bottomed Falcon® plate into Millipore® MAPH filter plates, preimpregnated with 25 μL of ice-cold 100% TCA.
The Millipore MAPH filter plates are agitated gently and are left to stand at room temperature for at least 30 minutes to precipitate the proteins.
After 30 minutes, the filter plates are sequentially washed and filtered with 2×150 μL of 20% TCA, 2×150 μL of 10% TCA and 2×150 μL of 5% TCA (6 washes in total per plate/900 μL per well).
The plates are left to dry overnight at room temperature. Next, 40 μL of Microscint-20 Packard® scintillation liquid are added per well and the plates are closed in a leak tight manner. The radiation emitted by each well is then measured for 2 minutes in a TopCount NXT Packard® scintillation counter, in which the values of CPM/well are measured.
The percentage inhibition of the capacity of the enzyme to phosphorylate the substrate (casein) is determined for each concentration of test compound. These inhibition data expressed as percentages are used to calculate the IC50 value for each compound compared with the controls.
The kinetic studies determined the KM value for ATP as being 21 μM in this test system.

human CK1 delta = molecular target: T1, human CK1 delta (Homo sapiens, UniProt P48730); test: FRET fluorescence test, Z'Lyte kinase assay kit, CK1 delta; assay type: biochemical; details: peptide SER/THR 11 2 μM, ATP 4 times KM
T1 construct: purchased Invitrogen Corporation PV3665
T1 sequence (P48730 whole entry): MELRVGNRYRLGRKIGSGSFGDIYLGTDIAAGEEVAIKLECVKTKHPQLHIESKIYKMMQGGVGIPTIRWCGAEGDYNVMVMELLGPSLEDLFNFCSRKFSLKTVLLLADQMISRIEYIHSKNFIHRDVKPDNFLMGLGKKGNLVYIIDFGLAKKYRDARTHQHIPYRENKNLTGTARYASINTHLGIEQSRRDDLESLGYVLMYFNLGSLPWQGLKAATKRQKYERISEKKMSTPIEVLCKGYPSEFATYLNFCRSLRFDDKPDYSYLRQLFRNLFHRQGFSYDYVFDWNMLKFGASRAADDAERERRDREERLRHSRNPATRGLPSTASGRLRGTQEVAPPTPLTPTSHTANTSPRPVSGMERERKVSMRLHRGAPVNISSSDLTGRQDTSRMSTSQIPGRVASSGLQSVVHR
Source text: The capacity of the compounds of the invention to inhibit the phosphorylation of casein by the casein kinases 1 epsilon and delta may be evaluated using an FRET (Fluorescence Resonance Energy Transfer) fluorescence test with the aid of the “Z′Lyte™ kinase assay kit” (reference PV3670; Invitrogen Corporation™) according to the manufacturer's instructions.
The casein kinases 1 used are obtained from Invitrogen Corporation (human CK1 epsilon PV3500 and human CK1 delta PV3665).
A peptide substrate, labeled at both ends with a fluorophore-donating group (coumarin) and a fluorophore-accepting group (fluorescein) constituting an FRET system is […] in the presence of ATP by casein kinase 1 epsilon or delta in the presence of increasing concentrations of compounds of the invention.
The mixture is treated with a site-specific protease that specifically cleaves the substrate peptide to form two fluorescent fragments having a large fluorescence emission ratio.
The fluorescence observed is thus related to the capacity of the products of the invention to inhibit the phosphorylation of the substrate peptide by casein kinase 1 epsilon or casein kinase 1 delta.
The compounds of the invention are dissolved at different concentrations starting with a 10 mM stock solution in DMSO diluted in a buffer containing 50 mM HEPS, pH 7.5, 1 mM EGTA, 0.01% Brij-35, 10 mM MgCl2 for casein kinase 1 epsilon and supplemented with Trizma Base (50 mM), pH 8.0 and NaN3 (0.01% final) for casein kinase 1 delta.
The phosphorylation of the substrate peptide SER/THR 11 obtained from Invitrogen Corporation™ is performed at a final concentration of 2 μM. The ATP concentration is 4 times the KM, this value being 2 μM for casein kinase 1 epsilon and 4 μM for casein kinase 1 delta.
The emitted fluorescence is measured at wavelengths of 445 and 520 nm (excitation at 400 nm).

[2] = test system: Mper1-luc Rat-1 (P2C4) fibroblasts; test: Circadian cell assay (mPer1-luciferase reporter, period prolongation); assay type: cell-based; details: effective concentration that induces a 1-hour prolongation of the circadian period
Procedure: Experimental Protocols for Circadian Cell Assay
Mper1-luc Rat-1 (P2C4) fibroblast cultures were prepared by dividing the cultures every 3-4 days (about 10-20% of confluence) on 150 cm^2 degassed polystyrene tissue culture flasks (Falcon® #35-5001) and maintained in growth medium [EMEM (Cellgro #10-010-CV); 10% fetal bovine serum (FBS; Gibco #16000-044); and 50 I.U./mL of penicillin-streptomycin (Cellgro #30-001-CI)] at 37° C. and under 5% CO2.
Cells obtained from Rat-1 fibroblast cultures at 30-50% of confluence as described above were co-transfected with vectors containing the selection marker for resistance to zeocin for a stable transfection and a luciferase reporter gene directed by the promoter mPer-1. After 24 to 48 hours, the cultures were divided on 96-well plates and maintained in growth medium supplemented with 50-100 μg/mL of zeocin (Invitrogen® #45-0430) for 10-14 days. The zeocin-resistant stable transfectants were evaluated for expression of the reporter by adding to the growth medium luciferin 100 μM (Promega® #E1603®) and by assaying the luciferase activity on a TopCount® scintillation counter (Packard model #C384V00). The Rat-1 cell clones expressing both zeocin resistance and luciferase activity directed by mPer1 were serum-shock synchronized with 50% horse serum [HS (Gibco® #16050-122)] and the activity of the circadian reporter was evaluated. The P2C4 clone of fibroblasts Mper1-luc Rat-1 was selected to test the compound.
The Mper1-luc Rat-1 (P2C4) fibroblasts at 40-50% of confluence obtained according to the protocol described above were plated out onto 96-well opaque tissue culture plates (Perkin Elmer® #6005680). The cultures are maintained in growth medium supplemented with 100 μg/mL of zeocin (Invitrogen #45-0430) until they reached 100% of confluence (48-72 hours). The cultures were then synchronized with 100 μL of synchronization medium [EMEM (Cellgro #10-010-CV); 100 I.U./mL of penicillin-streptomycin (Cellgro #30-001-C1); 50% HS (Gibco #16050-122)] for 2 hours at 37° C. and under 5% CO2. After synchronization, the cultures were rinsed with 100 μL of EMEM (Cellgro #10-010-CV) for 10 minutes at room temperature. After rinsing, the medium is replaced with 300 μL of CO2-independent medium [CO2I (Gibco #18045-088); L-glutamine 2 mM (Cellgro #25-005-C1); 100 U.I./mL of penicillin-streptomycin (Cellgro #30-001-C1); luciferin 100 μM (Promega #E 1603)]. […]
The two methods produced a virtually identical period estimation on a range of circadian periods. […] The data were analyzed by adjusting a hyperbolic curve to the data expressed as change of period (y-axis) as a function of the concentration of the test compound (x-axis) in the XLfit™ software and the CE Delta (t+1 h) was interpolated from this curve.

Sequence of casein kinase 1 epsilon (CK1 epsilon) (P49674 whole entry): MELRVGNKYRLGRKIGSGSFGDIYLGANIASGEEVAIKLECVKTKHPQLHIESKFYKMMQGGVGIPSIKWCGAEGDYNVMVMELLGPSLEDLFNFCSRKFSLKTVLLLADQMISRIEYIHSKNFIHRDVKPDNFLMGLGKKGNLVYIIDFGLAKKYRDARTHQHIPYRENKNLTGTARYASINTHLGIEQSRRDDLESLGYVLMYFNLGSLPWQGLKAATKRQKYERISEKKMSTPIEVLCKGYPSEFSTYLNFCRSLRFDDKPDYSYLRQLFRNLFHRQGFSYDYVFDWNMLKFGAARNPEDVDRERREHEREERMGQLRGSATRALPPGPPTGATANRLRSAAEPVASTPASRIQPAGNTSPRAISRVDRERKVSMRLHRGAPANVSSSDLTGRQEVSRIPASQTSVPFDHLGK

IC50 [1] | IC50 (human CK1 delta) | melting point | Molecule | CE Delta (t + 1 h) [2]
 | 5 nM |  | CN1CCN(c2ccc3nc(-c4ccc(F)cc4)c(-c4ccncc4)n3n2)CC1 [Compound 50, 2-(4-Fluorophenyl)-6-(4-methylpiperazin-1-yl)-3-pyrid-4-ylimidazo[1,2-b]pyridazine] | 28 nM
 | 59 to 110 nM | 236 to 239 °C | CC(C)N1CCN(c2ccc3nc(-c4ccc(Cl)cc4)c(-c4ccnc(N)c4)n3n2)CC1 [Compound 81, 4-[2-(4-Chlorophenyl)-6-(4-isopropylpiperazin-1-yl)imidazo[1,2-b]pyridazin-3-yl]pyrid-2-ylamine] | 
 |  | 204 to 206 °C | Fc1ccc(-c2nc3ccc(N4CC5CN(C6CC6)CC5C4)nn3c2-c2ccncc2)cc1 (stereo not shown) [Compound 115, 6-(5-Cyclopropylhexahydropyrrolo[3,4-c]pyrrol-2(1H)-yl)-2-(4-fluorophenyl)-3-pyrid-4-ylimidazo[1,2-b]pyridazine] | 2 nM
 |  | 193 to 195 °C | CN(C)C1CCN(c2ccc3nc(-c4ccc(F)cc4)c(-c4ccncc4)n3n2)CC1 [Compound 146, {1-[2-(4-Fluorophenyl)-3-pyrid-4-ylimidazo[1,2-b]pyridazin-6-yl]piperid-4-yl}dimethylamine] | 39 nM
22 to 116 nM | 50 to 53 nM |  | c1ccc(-c2nc3ccc(N4CCC(N5CCCC5)CC4)nn3c2-c2ccncc2)cc1 [Compound 147, 2-Phenyl-3-pyrid-4-yl-6-(4-pyrrolidin-1-ylpiperid-1-yl)-imidazo[1,2-b]pyridazine] | 

More lines, now with the values behind:

Molecule | IC50 [1] | IC50 (human CK1 delta) | melting point | CE Delta (t + 1 h) [2]
c1ccc(-c2nc3ccc(N4CCNCC4)nn3c2-c2ccncc2)cc1 [Compound 1, 2-Phenyl-6-piperazin-1-yl-3-pyrid-4-ylimidazo[1,2-b]pyridazine] | 3 nM |  |  | 
Cc1c(N2CCNCC2)nn2c(-c3ccncc3)c(-c3ccc(F)cc3)nc2c1C [Compound 3, 2-(4-Fluorophenyl)-7,8-dimethyl-6-piperazin-1-yl-3-pyrid-4-ylimidazo[1,2-b]pyridazine] | 1 nM |  |  | 
Cc1cc(C)cc(-c2nc3ccc(N4CCNC(C)(C)C4)nn3c2-c2ccnc(N)c2)c1 [Compound 30, 4-[2-(3,5-Dimethylphenyl)-6-(3,3-dimethylpiperazin-1-yl)imidazo[1,2-b]pyridazin-3-yl]pyrid-2-ylamine] | 60 nM |  |  | 
CC1(C)CN(c2ccc3nc(-c4cc(F)cc(F)c4)c(-c4ccncc4)n3n2)CCN1 [Compound 31, 2-(3,5-Difluorophenyl)-6-(3,3-dimethylpiperazin-1-yl)-3-pyrid-4-ylimidazo[1,2-b]pyridazine] |  | 91 to 93 nM |  | 
{4-[2-(4-Fluorophenyl)-6-((R)-3-methylpiperazin-1-yl)imidazo[1,2-b]pyridazin-3-yl]pyrid-2-yl}methylamine [Compound 153] | 8 nM |  |  | 2 to 9 nM
